Measurements published in patent publication US5153352A, “Process for preparation of intermediates of carbocyclic nucleoside analogs” (priority 1990, dated 1992).
Values after ≈ are worked out from the molar mass of the structure shown. Values joined by “and” are separate entries in the source; they are usually repeats but may differ in a detail not shown here. Identical values can stand only once.

Legend:
[1] = test system: Human Immunodificiency Virus (HIV-1); assay: inhibition of HIV-1 replication in human PBMC (RT activity); format: cell-based; details: Human immunodeficiency virus 1; HIV-1, PBMC, median-effect method
Description: Human peripheral blood mononuclear cells (PBMC) from healthy HIV-1 seronegative and hepatitis B virus seroneqative donors were isolated by Ficoll-Hypague discontinuous gradient centrifugation at 1,000×g for 30 minutes, washed twice in phosphate buffered saline (pH 7.2; PBS), and pelleted at 300×g for 10 minutes. Before infection, the cells were stimulated by phytohemagglutinin (PHA) at a concentration of 16.7 ug/ml for three days in RPMI 1640 medium supplemented with 15% heat-inactivated fetal calf serum, 1.5 mM L-glutamine, penicillin (100 U/ml), streptomycin (100 ug/ml) and 4 mM sodium bicarbonate buffer.
Uninfected PHA stimulated human PBMC were uniformly distributed among 25 cm^2 flasks to give a 5 ml suspension containing about 2×10^6 cells/ml. Suitable dilutions of virus were added to infect the cultures. The mean reverse transcriptase (RT) activity of the inocula was 60,000 dpm RT activity/10^6 cells. […]
The RT assay was perfromed in 96-well microtiter plates as described by Spira, et al. (J. Clin. Microbiol. 25 97 (1987)). […] Four ml of scintillation fluid (Econofluor, NEN Research Products, Boston, Ma.) were added and the amount of radioactivity in each sample was determined using a Packard Tri Carb liquid scintillation analyzer (model 2,000CA). […]

in vitro = details: monkey, vero cells, MTC (minimum drug concentration causing any cytotoxicity)
[2] = test system: P388D1: Lymphocytic Leukemia; assay: cytotoxic activity against cultured tumor cells, P388-D1; format: cell-based; details: Mus musculus, P388D1, 72 h; P388-D1, 3 days, MTT
Epstein-Barr virus (EBV) = assay: EBV genome copies in virus producing cells (P3HR-1); format: cell-based; details: P3HR-1 cells, 14 days, control 214
Description: Virus producing cells (P3HR-1) were exposed to test compound for 14 days and EBV genome copies per cell were determined by EBV specific cRNA DNA hybridization (Lin, et al., J. Virology 50 50-55 (1984). The results of this test are presented in Table 7.

[3] = test system: Herpes simplex type 2 (HSV-2) strain MS; assay: CPE-inhibition assay, HSV-2 strain MS in Vero cells; details: for EC50: Human alphaherpesvirus 2, Vero, read-out: ID50 (minimum drug concentration that inhibited the CPE by 50%), HSV-2 (MS), Vero
Herpesvirus 1 = assay: in vivo activity against intraperitoneal Herpesvirus 1 challenge in mice; parameters: species or system mouse infected with Herpesvirus 1 (strain 123); details: for No. Dead/No. Infected: 7 doses; for GMTD (geometric mean time to death): monitored daily for 21 days
Description: Four-week-old female outbred Swiss mice (CD 1, VAF+, Charles River Labs) were housed 5 per Microisolator® cage. Feed and water were supplied ad libitum. Fifteen mice were randomly assigned to each of the following treatment groups:
2. diluent (0.4% CMC/PBS controls)
3. 100 mg/kg test compound
4. 32 mg/kg test compound
5. 10 mg/kg test compound
6. 3.2 mg/kg test compound
Test compounds were diluted in 0.4% carboxymethylcellulose (CMC) prepared in phosphate buffered saline (PBS) at concentrations consistent with dosing at 0.1 ml per 10 q of body weight. Compounds were administered subcutaneously once daily for a total of 7 doses. Five mice in each treatment group served as uninfected toxicity controls. The remaining ten mice in each group were challenged intraperitoneally with an LD90 dose of the twelfth in vivo passage of Herpesvirus 1 (strain 123). Virus challenge was administered two hours after the first dose of compound was given. Mortality was monitored daily for 21 days. The mortality rates, average day of death, geometric mean time to death and virus rating were calculated for each treatment group.

Row | Structure (SMILES) | EC50 [1] | MCC (in vitro) | IC50 [2] | EBV genome copies/cell (Epstein-Barr virus (EBV); 0.01 uM) | EBV genome copies/cell (Epstein-Barr virus (EBV); 0.10 uM) | EBV genome copies/cell (Epstein-Barr virus (EBV); 1.00 uM) | EBV genome copies/cell (Epstein-Barr virus (EBV); 5.00 uM) | EBV genome copies/cell (Epstein-Barr virus (EBV); 10.00 uM) | TI (Therapeutic Index, MTC/ID50) ([3]; HSV-2 (MS), Vero) | EC50 [3] | VR (virus rating, GMTD of experimental/GMTD of diluent-treated control) (Herpesvirus 1; 3.2 mg/kg s.c.) | No. Dead/No. Infected (Herpesvirus 1; 3.2 mg/kg s.c. once daily) | GMTD (geometric mean time to death) (Herpesvirus 1; 3.2 mg/kg s.c.) | VR (virus rating, GMTD of experimental/GMTD of diluent-treated control) (Herpesvirus 1; 10 mg/kg s.c.) | No. Dead/No. Infected (Herpesvirus 1; 10 mg/kg s.c. once daily) | GMTD (geometric mean time to death) (Herpesvirus 1; 10 mg/kg s.c.) | VR (virus rating, GMTD of experimental/GMTD of diluent-treated control) (Herpesvirus 1; 32 mg/kg s.c.) | No. Dead/No. Infected (Herpesvirus 1; 32 mg/kg s.c. once daily) | GMTD (geometric mean time to death) (Herpesvirus 1; 32 mg/kg s.c.)
1 | Nc1nc2c(ncn2C2CC(CO)C2CO)c(=O)[nH]1 (stereo not shown) [Example 1I, 9-(2',3'-Bis(hydroxymethyl)cyclobutyl)guanine] | 0.98 µM | 320 µg/mL | 2.8 µg/mL (≈ 10.6 µM) | 223 EBV genome copies/cell | 181 EBV genome copies/cell | 40 EBV genome copies/cell | 12 EBV genome copies/cell | 10 EBV genome copies/cell | 50 and 30 | 6.4 µg/mL (≈ 24.1 µM) | 1.3 | 8/10 | 10.8 | 1.6 | 5/10 | 13.0 | 2.5 | 0/10 | 21.0
2 | Nc1ncnc2c1ncn2C1CC(CO)C1CO (stereo not shown) [Example 4C, 9-(2',3'-Bis(hydroxymethyl)cyclobutyl)adenine] | 0.96 µM |  | 0.64 µg/mL (≈ 2.57 µM) |  |  |  |  |  |  | 18.1 µg/mL (≈ 72.6 µM) |  |  |  |  |  |  |  |  | 
